In article PMC8219695 (Nature Communications, 2021):
“And” between values parts separate entries of the source, which are not always exact repeats. Equal values may be shown once.

Key:
[1] = target: hDOR (Homo sapiens, UniProt P41143); test: CAMYEL BRET cAMP agonist assay at hDOR; format: cell-based; conditions: for Agonist activity of 7OH analogs at hDOR: single replicate values, Supplementary Figure 7A
[2] = target: T1, rKOR (Rattus norvegicus, UniProt P34975); test: CAMYEL BRET cAMP agonist assay at rKOR; format: cell-based; conditions: individual replicates, Supplementary Figure 8B source data
T1 construct: expressed in transfected cells
T1 sequence (P34975 whole entry): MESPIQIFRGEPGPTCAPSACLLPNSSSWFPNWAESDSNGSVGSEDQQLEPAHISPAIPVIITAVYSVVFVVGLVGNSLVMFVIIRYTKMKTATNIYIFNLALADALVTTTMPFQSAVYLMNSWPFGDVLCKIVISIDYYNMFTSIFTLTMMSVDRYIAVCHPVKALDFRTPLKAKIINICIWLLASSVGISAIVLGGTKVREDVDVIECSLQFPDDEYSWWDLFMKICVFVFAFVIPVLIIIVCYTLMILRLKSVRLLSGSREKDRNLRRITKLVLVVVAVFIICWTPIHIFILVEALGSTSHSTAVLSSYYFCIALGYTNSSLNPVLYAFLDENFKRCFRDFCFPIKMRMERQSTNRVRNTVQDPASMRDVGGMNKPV

[3] = target: T2, mDOR (Mus musculus, UniProt P32300); test: CAMYEL BRET cAMP agonist assay at mDOR; format: cell-based; conditions: for Agonist activity of 7OH analogs at mDOR: single replicate values, Supplementary Figure 7B
T2 construct: expressed in transfected cells
T2 sequence (P32300 whole entry): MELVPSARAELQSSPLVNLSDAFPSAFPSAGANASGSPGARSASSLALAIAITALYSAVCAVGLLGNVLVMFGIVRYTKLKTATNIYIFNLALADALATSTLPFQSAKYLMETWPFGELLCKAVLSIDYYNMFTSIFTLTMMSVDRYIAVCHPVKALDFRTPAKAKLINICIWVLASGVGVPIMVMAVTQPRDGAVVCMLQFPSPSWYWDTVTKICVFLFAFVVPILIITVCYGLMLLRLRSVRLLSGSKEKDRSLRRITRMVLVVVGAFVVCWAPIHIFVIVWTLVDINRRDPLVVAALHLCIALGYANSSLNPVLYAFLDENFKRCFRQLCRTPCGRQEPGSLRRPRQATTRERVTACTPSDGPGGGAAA

[4] = target: T2, mDOR; test: [125I]BNtxA radioligand competition binding, mouse DOR; conditions: mean ± SEM, n = 3; [125I]BNtxA; read-out: Ki ± SEM mDOR
[5] = target: T3, mMOR (Mus musculus, UniProt P42866); test: CAMYEL BRET antagonism assay at mMOR (inhibition of DAMGO); format: cell-based; conditions: for Antagonist activity at mMOR, raw signal (single replicate values): source data of Fig 8a and Table 5, listed as C11-Br-7OH (24);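 on Antagonist activity at mMOR, raw signal (single replicate values): BRET signal rises as cAMP falls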
T3 construct: signal peptide (heterologous, not specified) (N); expressed in transfected cells; pcDNA3.1(+) construct made in house
T3 sequence (P42866 whole entry): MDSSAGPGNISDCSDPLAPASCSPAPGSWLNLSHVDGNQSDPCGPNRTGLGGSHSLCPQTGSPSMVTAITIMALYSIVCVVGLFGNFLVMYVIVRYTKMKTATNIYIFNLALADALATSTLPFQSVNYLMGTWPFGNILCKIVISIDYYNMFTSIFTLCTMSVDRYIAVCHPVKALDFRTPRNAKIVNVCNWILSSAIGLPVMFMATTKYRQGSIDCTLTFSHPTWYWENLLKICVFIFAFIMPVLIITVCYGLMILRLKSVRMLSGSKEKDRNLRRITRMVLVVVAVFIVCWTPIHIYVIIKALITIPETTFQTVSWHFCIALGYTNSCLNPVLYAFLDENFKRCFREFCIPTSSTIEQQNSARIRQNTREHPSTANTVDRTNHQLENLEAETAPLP

hDOR, sequence (P41143 whole entry): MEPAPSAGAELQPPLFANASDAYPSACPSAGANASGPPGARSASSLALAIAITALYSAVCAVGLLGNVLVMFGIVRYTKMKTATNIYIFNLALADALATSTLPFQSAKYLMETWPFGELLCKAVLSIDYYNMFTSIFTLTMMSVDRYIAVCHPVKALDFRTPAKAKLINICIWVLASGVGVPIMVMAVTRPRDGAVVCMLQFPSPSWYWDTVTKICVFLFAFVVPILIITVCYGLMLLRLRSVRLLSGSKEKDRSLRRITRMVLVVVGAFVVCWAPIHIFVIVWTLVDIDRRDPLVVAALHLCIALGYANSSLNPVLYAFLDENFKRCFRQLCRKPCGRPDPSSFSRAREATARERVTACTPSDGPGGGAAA

Q: Which “Agonist activity of 7OH analogs at hDOR” value ([1]; Log[drug] (M) -7) does the source give for `CC[C@@H]1CN2CC[C@@]3(O)C(=Nc4cc(Br)cc(OC)c43)[C@@H]2C[C@@H]1/C(=C\OC)C(=O)OC` [11-Br-7OH (24), 11-Br-7OH] here?
A: The value was 14.5317 and -1.155 and 1.334 and 28.0039 and 13.2568 and 5.897 and 5.1203 and 15.4297.

Q: What about the “Agonist activity of 7OH analogs at hDOR” value ([1]; Log[drug] (M) -8) of the same molecule?
A: The value was 10.6504 and 18.084 and 4.153 and 20.0173 and 1.0999 and 15.8027 and 12.7278 and 11.7823 and 20.1626.

Q: And the “Agonist activity of 7OH analogs at hDOR” value ([1]; Log[drug] (M) -9)?
A: The value was 19.553 and 11.3403 and 28.4089 and 9.179 and -1.427 and -6.158 and 5.452 and 0.7244 and 17.3106.

Q: And the “Agonist activity of 7OH analogs at hDOR” value ([1]; Log[drug] (M) -10)?
A: Its value is 3.839 and 3.779 and 7.219 and -2.673 and 3.726 and -0.9121 and -0.9075 and -0.119 and 1.027.

Q: And the “Agonist activity of 7OH analogs at hDOR” value ([1]; Log[drug] (M) -11)?
A: Its value is 6.722 and 21.7822 and 0.8452 and 0.831 and -3.07 and 2.24 and 15.2814 and 3.682 and 0.8607.

Q: And the “Agonist activity of 7OH analogs at hDOR” value ([1]; Log[drug] (M) -13)?
A: The value was -12.8405 and 3.455 and 9.386 and 2.252 and 8.162 and 14.0199 and 6.2368 and 9.608 and 10.0864.

Q: What about the Emax ([1]; hDOR cAMP BRET, positive control DPDPE) of the same molecule?
A: Its Emax is “very low efficacy”.

Q: And the “Agonist activity of 7OH analogs at rKOR” value ([2]; Log [drug](M) -5)?
A: Its value is 25.6296 and -9.743 and 0.6611 and 8.628 and -4.988 and 6.198 and 4.323 and 3.4884 and 6.258.

Q: And the “Agonist activity of 7OH analogs at rKOR” value ([2]; Log [drug](M) -6)?
A: Its value is 5.472 and -3.314 and -2.157 and 12.7013 and 24.7501 and 18.1661 and 1.856 and -1.539 and -0.3161.

Q: And the “Agonist activity of 7OH analogs at rKOR” value ([2]; Log [drug](M) -7)?
A: Its value is 4.7985 and -15.0915 and 10.4804 and 13.2829 and 19.8014 and 0.6752 and 3.169 and 0.0803 and -0.9699.

Q: And the “Agonist activity of 7OH analogs at rKOR” value ([2]; Log [drug](M) -8)?
A: Its value is 15.8006 and 9.743 and 5.004 and 1.565 and 3.381 and -4.9468 and 4.551 and 0.2655 and 16.2208.

Q: And the “Agonist activity of 7OH analogs at rKOR” value ([2]; Log [drug](M) -9)?
A: Its value is 2.391 and 0.4693 and -2.7298 and 8.844 and 10.6443 and -8.128 and 0.4192 and -1.635 and 9.514.

Q: And the “Agonist activity of 7OH analogs at rKOR” value ([2]; Log [drug](M) -10)?
A: Its value is -3.09 and -6.057 and 13.4494 and 16.7517 and 7.424 and 2.462 and 3.397 and 1.924 and 5.164.

Q: What about the “Agonist activity of 7OH analogs at rKOR” value ([2]; Log [drug](M) -11) of the same molecule?
A: The value was -9.158 and 9.8247 and 5.5119 and -1.702 and 25.9779 and 16.6823 and 6.047 and 6.143 and 5.108.

Q: And the “Agonist activity of 7OH analogs at rKOR” value ([2]; Log [drug](M) -13)?
A: Its value is -5.115 and 8.484 and 8.583 and 29.3433 and 7.52 and 9.7517 and 3.9044 and 5.761 and 8.186.

Q: What about the “Agonist activity of 7OH analogs at mDOR” value ([3]; Log[drug] (M) -5) of the same molecule?
A: Its value is 13.8013 and 18.9976 and 33.2307 and 22.3286 and 13.395 and 16.9068 and 13.8361 and 11.2191 and 18.2655.

Q: And the “Agonist activity of 7OH analogs at mDOR” value ([3]; Log[drug] (M) -6)?
A: Its value is 28.5316 and 7.81 and 20.2665 and 20.4093 and 17.1261 and 17.3487 and 14.4976 and 7.195 and 12.5927.

Q: And the “Agonist activity of 7OH analogs at mDOR” value ([3]; Log[drug] (M) -7)?
A: The value was 11.1893 and 13.4547 and 27.5656 and 14.54 and 12.7942 and 5.698 and 4.253 and 2.065 and 7.661.

Q: What about the “Agonist activity of 7OH analogs at mDOR” value ([3]; Log[drug] (M) -8) of the same molecule?
A: The value was 10.5957 and 18.0747 and 9.651 and 4.935 and -3.078 and 4.75 and 6.109 and 1.285 and 9.808.

Q: What about the “Agonist activity of 7OH analogs at mDOR” value ([3]; Log[drug] (M) -9) of the same molecule?
A: The value was 17.3278 and 15.5005 and 47.145 and -2.094 and 7.434 and -5.339 and 5.642 and -1.53 and 3.1.

Q: What about the “Agonist activity of 7OH analogs at mDOR” value ([3]; Log[drug] (M) -10) of the same molecule?
A: The value was 8.93 and 5.939 and 6.52 and 4.461 and 5.129 and -1.733 and 2.478 and 3.975 and -1.971.

Q: What about the “Agonist activity of 7OH analogs at mDOR” value ([3]; Log[drug] (M) -11) of the same molecule?
A: Its value is 10.869 and 6.17 and -5.4274 and 13.8383 and 9.771 and 11.6667 and 2.792 and -1.117 and -1.6751.

Q: What about the “Agonist activity of 7OH analogs at mDOR” value ([3]; Log[drug] (M) -13) of the same molecule?
A: Its value is -4.49 and 2.526 and 1.964 and 13.4101 and 7.388 and 17.2326 and -5.081 and 4.508 and 13.385.

Q: What about the Emax ([3]; mDOR cAMP BRET, positive control DPDPE) of the same molecule?
A: The Emax was “very low efficacy”.

Q: And the Ki [4]?
A: Its Ki is 57.7 ± 6.7 nM.

Q: What about the IC50 [5] of the same molecule?
A: The IC50 was 550 nM.

Q: And the “Antagonist activity at mMOR, raw signal (single replicate values)” value (from here on “Antagonist activity at mMOR, raw signal”) ([5]; Log[drug] (M) -5)?
A: The value was 0.01588 and 0.02679 and 0.02408 and 0.03029 and 0.008675 and 0.02853 and 0.02577 and 0.02856 and 0.04207.

Q: And the “Antagonist activity at mMOR, raw signal” value ([5]; Log[drug] (M) -6)?
A: Its value is 0.07568 and 0.07832 and 0.06492 and 0.08421 and 0.0634 and 0.06872 and 0.08325 and 0.0829 and 0.07977.

Q: What about the “Antagonist activity at mMOR, raw signal” value ([5]; Log[drug] (M) -7) of the same molecule?
A: Its value is 0.1777 and 0.1753 and 0.1839 and 0.1921 and 0.1726 and 0.1908 and 0.1553 and 0.1528 and 0.1604.

Q: What about the “Antagonist activity at mMOR, raw signal” value ([5]; Log[drug] (M) -8) of the same molecule?
A: The value was 0.2079 and 0.2137 and 0.206 and 0.2077 and 0.2162 and 0.1891 and 0.1751 and 0.1625 and 0.1706.

Q: And the “Antagonist activity at mMOR, raw signal” value ([5]; Log[drug] (M) -9)?
A: Its value is 0.1949 and 0.206 and 0.225 and 0.1941 and 0.2008 and 0.2159 and 0.1687 and 0.1594 and 0.1786.

Q: And the “Antagonist activity at mMOR, raw signal” value ([5]; Log[drug] (M) -10)?
A: The value was 0.1894 and 0.2034 and 0.2214 and 0.2024 and 0.209 and 0.1982 and 0.1754 and 0.1654 and 0.1797.

Q: What about the “Antagonist activity at mMOR, raw signal” value ([5]; Log[drug] (M) -11) of the same molecule?
A: Its value is 0.2409 and 0.2089 (2×) and 0.2025 and 0.1938 and 0.2023 and 0.1798 and 0.1667 and 0.1739.
